One series concerns the target T1, POLQ (Homo sapiens, UniProt O75417).
T1 construct: the N-terminal active peptide segment of POLQ with ATPase activity (M1-N899) is co-incubated with the compound; purchased Pharmaron
Nature of the series: POLQ enzyme activity inhibition experiment (ATPase, NADH-coupled). It counts as biochemical. On the procedure: Brief introduction to experimental principle: After the N-terminal active peptide segment of POLQ with ATPase activity (M1-N899) is co-incubated with the compound, this peptide segment reacts with substrate dT50 under the action of ATP to generate ADP. The generated ADP then participates in the subsequent NADH oxidation-coupled enzymatic reaction, catalyzing the conversion of NADH to NAD^+. The reduction in the OD value of NADH at 340 nm was measured using the Envision microplate reader from Perkin Elmer to reflect enzyme activity.
Experimental methods: The POLQ enzyme was diluted to 100 nM with a reaction buffer (20 mM Tris HCl (pH 7.80), 80 mM KCl, 10 mM MgCl2, 1 mM DTT, 0.01% w/v bovine serum albumin, 0.01% v/v Tween-20, 5% v/v glycerol). The test compound was diluted to different concentrations with dimethyl sulfoxide (DMSO) using the Echo 650 pipetting system and transferred to a 384-well plate, 20 µL/well of 100 nM POLQ was added, and the mixture was incubated at room temperature for 15 min. […] After the 384-well plate was reacted at room temperature for 20 min, the OD value at 340 nm was read using an Envision microplate reader.
Inhibition rates were calculated and fitted using XLfit software to give the IC50 of the compound. […]

The test system of another series is hepatocytes. Nature of the series: Metabolic stability in hepatocytes. It is filed as in vitro ADME. Particulars: hepatocytes of various species. On the procedure:
The metabolic stability of the compounds of the present disclosure in hepatocytes was determined by the following test method.
• 1. Human hepatocytes (Biopredic BQHPCH10), cynomolgus monkey hepatocytes (RILD HP-SXH-02M), Beagle dog hepatocytes (BioIVT M00205), SD rat hepatocytes (BioIVT M00005), and CD-1 mouse hepatocytes (BioIVT M00505) • 2. AOPI stain (Nexcelom 200710-01-01) • 3. Dexamethasone (NIFDC 100129-201506) • 4. DPBS (10×) (Gibco by Life Technologies 2060570) • 5. Fetal bovine serum (FBS) (Corning 35081001) • 6. GlutaMAXTM-1 (100×) (Gibco by Life Technologies 2186980) • 7. HEPES (Sigma RNBJ1276) • 8. Human recombinant insulin (Gibco by Life Technologies 2090407) • 9. Isotonic Percoll (GE Healthcare 10288259) • 10. Verapamil (Sigma MKBV4993V) • 11. Williams' Medium E (Sigma RNBJ3314) • 12. […]
All data were calculated by Microsoft Excel software. The peak area was detected through an extracted ion chromatogram. The in vitro half-life (t1/2) of the compound was determined by performing linear fitting of the natural logarithm of elimination percent of the compound and time.
In vitro half-life (t1/2) was calculated by the slope: in vitro t1/2 = 0.693/k [formula]
The in vitro intrinsic clearance (unit: µL/min/mg protein) was calculated using the following formula: in vitro CLint = k × volume of incubation (μL)/amount of proteins (mg) [formula] […]

By IC50 is commonly meant the concentration at which inhibition is half-maximal. Read a high IC50 as weaker potency in that assay.

T1 sequence (O75417 1-899): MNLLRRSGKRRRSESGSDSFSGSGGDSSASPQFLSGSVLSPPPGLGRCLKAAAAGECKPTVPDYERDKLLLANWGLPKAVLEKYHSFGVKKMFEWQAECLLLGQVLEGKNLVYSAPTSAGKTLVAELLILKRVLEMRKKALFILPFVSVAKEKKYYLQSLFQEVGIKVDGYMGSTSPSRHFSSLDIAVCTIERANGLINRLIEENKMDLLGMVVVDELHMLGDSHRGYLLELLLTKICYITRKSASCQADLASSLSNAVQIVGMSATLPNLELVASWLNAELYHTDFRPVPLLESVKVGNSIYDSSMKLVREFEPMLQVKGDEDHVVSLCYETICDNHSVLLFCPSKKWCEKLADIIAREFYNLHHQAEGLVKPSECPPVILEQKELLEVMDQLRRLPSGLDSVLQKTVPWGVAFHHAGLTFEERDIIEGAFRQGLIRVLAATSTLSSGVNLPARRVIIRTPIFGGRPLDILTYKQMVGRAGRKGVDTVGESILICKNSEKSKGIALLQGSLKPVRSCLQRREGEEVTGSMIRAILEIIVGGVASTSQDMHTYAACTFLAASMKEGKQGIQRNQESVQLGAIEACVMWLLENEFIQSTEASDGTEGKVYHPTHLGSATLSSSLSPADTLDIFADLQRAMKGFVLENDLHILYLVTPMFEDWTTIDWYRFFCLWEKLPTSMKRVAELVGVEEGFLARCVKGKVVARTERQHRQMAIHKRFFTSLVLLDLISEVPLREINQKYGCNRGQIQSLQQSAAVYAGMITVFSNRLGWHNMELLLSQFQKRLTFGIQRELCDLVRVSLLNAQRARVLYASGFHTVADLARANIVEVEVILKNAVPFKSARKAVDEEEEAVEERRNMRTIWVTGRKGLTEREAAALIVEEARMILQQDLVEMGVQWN

On POLQ, `COc1ccc(Cl)cc1-c1cc(C)ncc1C(=O)Nc1nc2ncc(-c3ccc(C#N)cc3)nc2s1` [Compound of formula I, 4-(5-chloro-2-methoxyphenyl)-N-[6-(4-cyanophenyl)thiazolo[4,5-b]pyrazin-2-yl]-6-methylnicotinamide] yielded an IC50 of under 0.1 µM. For the same molecule, the “metabolic stability in hepatocytes” value in the series with hepatocytes is recorded as “metabolically stable”.

The values are drawn from patent publication EP4745145A1, “SALT OF THIAZOLOPYRAZINE COMPOUND OR CRYSTAL THEREOF AND USE THEREOF” (Simcere Zaiming Pharmaceutical Co., Ltd., priority 2023, dated 2025).
